These results are taken from publication PMC5218480 (PLoS ONE, 2017).

The test system of this test is MV-4-11 cells. The test can be described thus: Gene expression microarray analysis (Affymetrix PrimeView) and GSEA. Type of test: cell-based, human. Conditions: ProbeSet 11717702_a_at; LIST D. Also noted: RFU PODN (11730768_x_at) / Fold change /veh PODN (11730768_x_at) / RFU LINC00158 (11744669_a_at) / Fold change /veh LINC00158 (11744669_a_at) / RFU DUSP10 (11751237_a_at) / Fold change /veh DUSP10 (11751237_a_at) / RFU ID3 (11757404_x_at) / Fold change /veh ID3 (11757404_x_at) / RFU PLEKHG5 (11737974_s_at) / Fold change /veh PLEKHG5 (11737974_s_at) / RFU LRRC4B (11730491_at) / Fold change /veh LRRC4B (11730491_at) / RFU GIMAP4 (11747438_a_at) / Fold change /veh GIMAP4 (11747438_a_at) / RFU KRT8 (11758183_x_at) / Fold change /veh KRT8 (11758183_x_at) / RFU CNN1 (11734310_a_at) / Fold change /veh CNN1 (11734310_a_at) / RFU VPS37D (11726825_at) / Fold change /veh VPS37D (11726825_at) / RFU C10orf10 (11716522_x_at) / Fold change /veh C10orf10 (11716522_x_at) / RFU KIR2DL2 /// KIR2DL4 /// KIR2DL5A /// KIR2DL5B /// KIR2DS1 /// KIR2DS2 /// KIR2DS3 /// KIR2DS4 /// KIR3DL3 /// KIR3DL3 /// KIR3DS1 (11738374_at) / Fold change /veh KIR2DL2 /// KIR2DL4 /// KIR2DL5A /// KIR2DL5B /// KIR2DS1 /// KIR2DS2 /// KIR2DS3 /// KIR2DS4 /// KIR3DL3 /// KIR3DL3 /// KIR3DS1 (11738374_at) / RFU C1QL1 (11718748_at) / Fold change /veh C1QL1 (11718748_at) / RFU TMPRSS4 (11747572_a_at) / Fold change /veh TMPRSS4 (11747572_a_at) / RFU HAMP (11756126_x_at) / Fold change /veh HAMP (11756126_x_at) / RFU RNFT2 (11725882_a_at) / Fold change /veh RNFT2 (11725882_a_at) / RFU NR4A2 (11747474_a_at) / Fold change /veh NR4A2 (11747474_a_at) / RFU ABCC12 (11746883_a_at) / Fold change /veh ABCC12 (11746883_a_at) / RFU TMEM136 (11760407_x_at) / Fold change /veh TMEM136 (11760407_x_at) / RFU CLDN22 /// WWC2 (11732394_at) / Fold change /veh CLDN22 /// WWC2 (11732394_at) / RFU HLA-DPB1 (11760878_x_at) / Fold change /veh HLA-DPB1 (11760878_x_at) / RFU SPINT1 (11716480_a_at) / Fold change /veh SPINT1 (11716480_a_at) / RFU GAP43 (11754022_s_at) / Fold change /veh GAP43 (11754022_s_at) / RFU A4GNT (11735810_at) / Fold change /veh A4GNT (11735810_at) / RFU PRB3 (11715151_x_at) / Fold change /veh PRB3 (11715151_x_at) / RFU TUBB4B (11761932_at) / Fold change /veh TUBB4B (11761932_at) / RFU CAPN14 (11732068_a_at) / Fold change /veh CAPN14 (11732068_a_at) / RFU TMCC2 (11721928_a_at) / Fold change /veh TMCC2 (11721928_a_at) / RFU IRGQ (11745062_a_at) / Fold change /veh IRGQ (11745062_a_at) / RFU FAM174B (11720279_a_at) / Fold change /veh FAM174B (11720279_a_at) / RFU TMPRSS4 (11748680_a_at) / Fold change /veh TMPRSS4 (11748680_a_at) / RFU FAM212B (11763350_a_at) / Fold change /veh FAM212B (11763350_a_at) / RFU PLEKHG5 (11743358_a_at) / Fold change /veh PLEKHG5 (11743358_a_at) / RFU ZSCAN30 (11745921_a_at) / Fold change /veh ZSCAN30 (11745921_a_at) / RFU CMKLR1 (11741424_a_at) / Fold change /veh CMKLR1 (11741424_a_at) / RFU LOC101060620 /// MAPK8IP1 (11723275_at) / Fold change /veh LOC101060620 /// MAPK8IP1 (11723275_at) / RFU SPTSSB (11747773_x_at) / Fold change /veh SPTSSB (11747773_x_at) / RFU PRSS12 (11739890_at) / Fold change /veh PRSS12 (11739890_at) / RFU BIN1 (11741810_x_at) / Fold change /veh BIN1 (11741810_x_at) / RFU WNT11 (11732464_a_at) / Fold change /veh WNT11 (11732464_a_at) / RFU C10orf10 (11716521_a_at) / Fold change /veh C10orf10 (11716521_a_at) / RFU C5orf56 (11738089_at) / Fold change /veh C5orf56 (11738089_at) / RFU CYB561 (11721691_x_at) / Fold change /veh CYB561 (11721691_x_at) / RFU ANKRD19P (11752326_a_at) / Fold change /veh ANKRD19P (11752326_a_at) / RFU OR2T12 /// OR2T33 /// OR2T8 (11738714_s_at) / Fold change /veh OR2T12 /// OR2T33 /// OR2T8 (11738714_s_at) / RFU VCAN (11748164_a_at) / Fold change /veh VCAN (11748164_a_at) / RFU JSRP1 (11732532_at) / Fold change /veh JSRP1 (11732532_at) / RFU KRTAP10-11 (11738290_x_at) / Fold change /veh KRTAP10-11 (11738290_x_at) / RFU MYO3A (11730013_a_at) / Fold change /veh MYO3A (11730013_a_at) / RFU EBF3 (11725865_a_at) / Fold change /veh EBF3 (11725865_a_at) / RFU CAMK2N1 (11719241_x_at) / Fold change /veh CAMK2N1 (11719241_x_at) / RFU C5orf56 (11738088_a_at) / Fold change /veh C5orf56 (11738088_a_at) / RFU OLFML3 (11715873_a_at) / Fold change /veh OLFML3 (11715873_a_at) / RFU LOC100653217 /// NTM (11731650_a_at) / Fold change /veh LOC100653217 /// NTM (11731650_a_at) / RFU MAPK11 (11762145_a_at) / Fold change /veh MAPK11 (11762145_a_at) / RFU FIZ1 (11724087_x_at) / Fold change /veh FIZ1 (11724087_x_at) / RFU OASL (11726364_x_at) / Fold change /veh OASL (11726364_x_at) / RFU SOX15 (11748057_x_at) / Fold change /veh SOX15 (11748057_x_at) / RFU CD79A (11719716_a_at) / Fold change /veh CD79A (11719716_a_at) / RFU HIST1H1D (11736915_at) / Fold change /veh HIST1H1D (11736915_at) / RFU CASKIN2 (11723855_a_at) / Fold change /veh CASKIN2 (11723855_a_at) / RFU LOC730098 (11760151_x_at) / Fold change /veh LOC730098 (11760151_x_at) / RFU OR4N2 (11742367_at) / Fold change /veh OR4N2 (11742367_at) / RFU PRRT2 (11749266_a_at) / Fold change /veh PRRT2 (11749266_a_at) / RFU SNX32 (11753110_a_at) / Fold change /veh SNX32 (11753110_a_at) / RFU CDHR5 (11726645_a_at) / Fold change /veh CDHR5 (11726645_a_at) / RFU RCAN1 (11760418_a_at) / Fold change /veh RCAN1 (11760418_a_at) / RFU FAM167A (11723789_a_at) / Fold change /veh FAM167A (11723789_a_at) / RFU FAM26E (11764081_at) / Fold change /veh FAM26E (11764081_at) / RFU ISYNA1 (11749810_s_at) / Fold change /veh ISYNA1 (11749810_s_at) / RFU ACY1 (11761880_at) / Fold change /veh ACY1 (11761880_at) / RFU 11764098_at / Fold change /veh 11764098_at / RFU SAMD14 (11745864_x_at) / Fold change /veh SAMD14 (11745864_x_at) / RFU NPB (11741838_a_at) / Fold change /veh NPB (11741838_a_at) / RFU TMPRSS6 (11731388_a_at) / Fold change /veh TMPRSS6 (11731388_a_at) / RFU KRTAP10-2 (11738614_at) / Fold change /veh KRTAP10-2 (11738614_at) / RFU ARHGAP8 /// PRR5-ARHGAP8 (11727945_x_at) / Fold change /veh ARHGAP8 /// PRR5-ARHGAP8 (11727945_x_at) / RFU KRTAP5-7 /// NADSYN1 (11734609_at) / Fold change /veh KRTAP5-7 /// NADSYN1 (11734609_at) / RFU RASL12 (11751679_a_at) / Fold change /veh RASL12 (11751679_a_at) / RFU CDKN2B (11736163_a_at) / Fold change /veh CDKN2B (11736163_a_at) / RFU PRF1 (11729649_at) / Fold change /veh PRF1 (11729649_at) / RFU, ZNF638 /// ZNF638-IT1 / Fold change vs veh, ZNF638 /// ZNF638-IT1 / RFU, PANK3 / Fold change vs veh, PANK3 / RFU, SH3YL1 / Fold change vs veh, SH3YL1 / RFU, ZEB2 / Fold change vs veh, ZEB2 / RFU, NRIP1 / Fold change vs veh, NRIP1 / RFU, PTTG1IP / Fold change vs veh, PTTG1IP / RFU, CAPN2 / Fold change vs veh, CAPN2 / RFU, MED14 / Fold change vs veh, MED14 / RFU, SNORA58 / Fold change vs veh, SNORA58 / RFU, C1orf63 / Fold change vs veh, C1orf63 / RFU, LRRFIP1 / Fold change vs veh, LRRFIP1 / RFU, NDUFAF7 / Fold change vs veh, NDUFAF7 / RFU, SLC12A2 / Fold change vs veh, SLC12A2 / RFU, IBTK / Fold change vs veh, IBTK / RFU, ESF1 / Fold change vs veh, ESF1 / Fold change vs veh, TMEM50B / RFU, TAOK1 / Fold change vs veh, TAOK1 / RFU, ACBD3 / Fold change vs veh, ACBD3 / RFU, TMA16 / Fold change vs veh, TMA16 / RFU, RWDD3 / Fold change vs veh, RWDD3 / RFU, BCAT1 / Fold change vs veh, BCAT1 / RFU, EDEM3 / Fold change vs veh, EDEM3 / RFU, TMEM33 / Fold change vs veh, TMEM33 / RFU, WDR75 / Fold change vs veh, WDR75 / RFU, AHCTF1 / Fold change vs veh, AHCTF1 / RFU, TFRC / Fold change vs veh, TFRC / RFU, ZDHHC17 / Fold change vs veh, ZDHHC17 / RFU, NOM1 / Fold change vs veh, NOM1 / RFU, ARL8B / Fold change vs veh, ARL8B / RFU, ZBTB11 / Fold change vs veh, ZBTB11 / RFU, TAMM41 / Fold change vs veh, TAMM41 / RFU, KIAA1704 /// LOC100996395 / Fold change vs veh, KIAA1704 /// LOC100996395 / RFU, ING1 / Fold change vs veh, ING1 / RFU, TRMT61B / Fold change vs veh, TRMT61B / RFU, FUBP3 / Fold change vs veh, FUBP3 / RFU, TP53 / Fold change vs veh, TP53 / RFU, TNKS2 / Fold change vs veh, TNKS2 / RFU, ZFP14 / Fold change vs veh, ZFP14 / RFU, ACTR2 / Fold change vs veh, ACTR2 / RFU, PPP3R1 / Fold change vs veh, PPP3R1 / RFU, PIK3R1 / Fold change vs veh, PIK3R1 / RFU, HNRNPA1 / Fold change vs veh, HNRNPA1 / RFU, RNF170 / Fold change vs veh, RNF170 / RFU, ZNF28 / Fold change vs veh, ZNF28 / RFU, RNGTT / Fold change vs veh, RNGTT / RFU, OGT / Fold change vs veh, OGT / RFU, BRD1 / Fold change vs veh, BRD1 / RFU, MARS / Fold change vs veh, MARS / RFU, ZNF655 / Fold change vs veh, ZNF655 / RFU, FAHD1 / Fold change vs veh, FAHD1 / RFU, BDP1 / Fold change vs veh, BDP1 / RFU, LRRCC1 / Fold change vs veh, LRRCC1 / RFU, ARID1A / Fold change vs veh, ARID1A / RFU, ZNF146 / Fold change vs veh, ZNF146 / RFU, ZNF330 / Fold change vs veh, ZNF330 / RFU, GPN3 / Fold change vs veh, GPN3 / RFU, C9orf123 / Fold change vs veh, C9orf123 / RFU, N4BP2L2 / Fold change vs veh, N4BP2L2 / RFU, ARFIP1 / Fold change vs veh, ARFIP1 / RFU, FAM179B / Fold change vs veh, FAM179B / RFU, BCL10 / Fold change vs veh, BCL10 / RFU, UHRF1BP1L / Fold change vs veh, UHRF1BP1L / RFU, BET1 / Fold change vs veh, BET1 / RFU, CNOT2 / Fold change vs veh, CNOT2 / RFU, ZNF268 / Fold change vs veh, ZNF268 / Fold change vs veh, ZNF507 / RFU, DGCR2 / Fold change vs veh, DGCR2 / RFU, WDSUB1 / Fold change vs veh, WDSUB1 / Fold change vs veh, HSP90B1 /// MIR3652 / RFU, ADSS / Fold change vs veh, ADSS / RFU, GK / Fold change vs veh, GK / RFU, ZNF148 / Fold change vs veh, ZNF148 / RFU, TAF9 / Fold change vs veh, TAF9 / RFU, SLC1A5 / Fold change vs veh, SLC1A5 / RFU, SLMO2 / Fold change vs veh, SLMO2 / RFU, ABCC4 / Fold change vs veh, ABCC4 / RFU, LOC101060439 /// RAP1B / Fold change vs veh, LOC101060439 /// RAP1B / RFU, RFX7 / Fold change vs veh, RFX7 / RFU, GTPBP10 / Fold change vs veh, GTPBP10 / RFU, CNEP1R1 / Fold change vs veh, CNEP1R1 / RFU, BIVM-ERCC5 /// ERCC5 / Fold change vs veh, BIVM-ERCC5 /// ERCC5 / RFU, ILF3 / Fold change vs veh, ILF3 / RFU 11762660_at / Fold change /veh 11762660_at / RFU VCAN (11757783_s_at) / Fold change /veh VCAN (11757783_s_at) / RFU DDX43 (11728927_at) / Fold change /veh DDX43 (11728927_at) / RFU KRT8 (11758188_x_at) / Fold change /veh KRT8 (11758188_x_at) / RFU NKD1 (11759106_at) / Fold change /veh NKD1 (11759106_at) / RFU SRD5A1 (11742802_a_at) / Fold change /veh SRD5A1 (11742802_a_at) / RFU TPSAB1 /// TPSB2 (11721975_s_at) / Fold change /veh TPSAB1 /// TPSB2 (11721975_s_at) / RFU GSTM3 (11746129_a_at) / Fold change /veh GSTM3 (11746129_a_at) / RFU IL23R (11737362_x_at) / Fold change /veh IL23R (11737362_x_at) / RFU TMEM51 (11727254_a_at) / Fold change /veh TMEM51 (11727254_a_at) / RFU PIWIL2 (11732686_x_at) / Fold change /veh PIWIL2 (11732686_x_at) / RFU ORM1 (11744905_x_at) / Fold change /veh ORM1 (11744905_x_at) / RFU CCDC152 (11743942_at) / Fold change /veh CCDC152 (11743942_at) / RFU ECM1 (11717891_a_at) / Fold change /veh ECM1 (11717891_a_at) / RFU IL23R (11748794_a_at) / Fold change /veh IL23R (11748794_a_at) / RFU TNFAIP8L3 (11732012_x_at) / Fold change /veh TNFAIP8L3 (11732012_x_at) / RFU MBOAT4 (11741988_at) / Fold change /veh MBOAT4 (11741988_at) / RFU 11764193_at / Fold change /veh 11764193_at / RFU TMEM53 (11763286_at) / Fold change /veh TMEM53 (11763286_at) / RFU MAGEB2 (11727129_at) / Fold change /veh MAGEB2 (11727129_at) / RFU TMEM200A (11744735_a_at) / Fold change /veh TMEM200A (11744735_a_at) / RFU CCDC152 (11751479_a_at) / Fold change /veh CCDC152 (11751479_a_at) / RFU FAM211A (11726209_a_at) / Fold change /veh FAM211A (11726209_a_at) / RFU RGS16 (11746705_a_at) / Fold change /veh RGS16 (11746705_a_at) / RFU VCAN (11755009_s_at) / Fold change /veh VCAN (11755009_s_at) / RFU RHOB (11743442_s_at) / Fold change /veh RHOB (11743442_s_at) / RFU RGS16 (11720943_a_at) / Fold change /veh RGS16 (11720943_a_at) / RFU RGS16 (11720944_at) / Fold change /veh RGS16 (11720944_at) / RFU, VPS4B / Fold change vs veh, VPS4B / RFU, CREB1 / Fold change vs veh, CREB1 / RFU, DNAJC13 / Fold change vs veh, DNAJC13 / RFU, GNAQ / Fold change vs veh, GNAQ / RFU, CDK5R1 / Fold change vs veh, CDK5R1 / RFU, ZRANB3 / Fold change vs veh, ZRANB3 / RFU, CUL4A / Fold change vs veh, CUL4A / RFU, CCNY / Fold change vs veh, CCNY / RFU, UFL1 / Fold change vs veh, UFL1 / RFU, COG3 / Fold change vs veh, COG3 / RFU, DIAPH2 / Fold change vs veh, DIAPH2 / RFU, SKA2 / Fold change vs veh, SKA2 / RFU, AFF3 / Fold change vs veh, AFF3 / RFU, LMF1 / Fold change vs veh, LMF1 / RFU, IPO11 / Fold change vs veh, IPO11 / RFU, DFFB / Fold change vs veh, DFFB / RFU, FOXP1 / Fold change vs veh, FOXP1 / RFU, CARD8 / Fold change vs veh, CARD8 / RFU, STRN3 / Fold change vs veh, STRN3 / RFU, ADK / Fold change vs veh, ADK / RFU, RASSF2 / Fold change vs veh, RASSF2 / RFU, WIPF1 / Fold change vs veh, WIPF1 / RFU, LARP1B / Fold change vs veh, LARP1B / RFU, RASA1 / Fold change vs veh, RASA1 / RFU, RB1 / Fold change vs veh, RB1 / RFU, PPFIA1 / Fold change vs veh, PPFIA1 / RFU, MAT2A / Fold change vs veh, MAT2A / RFU, CCT5 / Fold change vs veh, CCT5 / RFU, WDR92 / Fold change vs veh, WDR92 / RFU, CUX1 / Fold change vs veh, CUX1 / RFU, TTC7A / Fold change vs veh, TTC7A / RFU, TMEM135 / Fold change vs veh, TMEM135 / RFU, DEPTOR / Fold change vs veh, DEPTOR / RFU, CPM / Fold change vs veh, CPM / RFU, DNAJB6 / Fold change vs veh, DNAJB6 / RFU, CACNA2D3 / Fold change vs veh, CACNA2D3 / RFU, DTX4 / Fold change vs veh, DTX4 / RFU, TFCP2 / Fold change vs veh, TFCP2 / RFU, GMCL1 /// GMCL1P1 / Fold change vs veh, GMCL1 /// GMCL1P1 / RFU, AEBP2 / Fold change vs veh, AEBP2 / RFU, SNHG1 /// SNORD22 /// SNORD25 /// SNORD26 /// SNORD27 /// SNORD28 /// SNORD29 /// SNORD31 / Fold change vs veh, SNHG1 /// SNORD22 /// SNORD25 /// SNORD26 /// SNORD27 /// SNORD28 /// SNORD29 /// SNORD31 / Fold change (Aza/veh), C12orf56 (ProbeSet 11735607_a_at) / Fold change (ACY-1035/veh), C12orf56 (ProbeSet 11735607_a_at) / Fold change (Aza/veh), FGFR1OP (ProbeSet 11751329_s_at) / Fold change (ACY-1035/veh), FGFR1OP (ProbeSet 11751329_s_at) / Fold change (Aza/veh), VPS36 (ProbeSet 11739960_a_at) / Fold change (ACY-1035/veh), VPS36 (ProbeSet 11739960_a_at) / RFU SYPL1 (11715823_x_at) / Fold change /veh SYPL1 (11715823_x_at) / RFU IGFBP7 (11715501_s_at) / Fold change /veh IGFBP7 (11715501_s_at) / RFU REEP3 (11722064_at) / Fold change /veh REEP3 (11722064_at) / RFU IGLL1 (11728026_x_at) / Fold change /veh IGLL1 (11728026_x_at): dose or concentration left out as unconfirmed.

Consider `Nc1ncn([C@@H]2O[C@H](CO)[C@@H](O)[C@H]2O)c(=O)n1` [azacitidine], for which the “Fold change vs veh, RB1” value is recorded as 0.73.
